A short description of the first data set: in vitro. Conditions: human, hela cells, % viability.
With `Cc1nc(-c2ccccc2)sc1CNC(=O)C1CC1C` (stereo not shown) [CBK092369], the viability at 28.5 h, 10 µM stood at 97%.
Regarding `Cc1nc(-c2ccccc2)sc1CNC(=O)Cc1ccccc1F` [CBK092372], the viability at 28.5 h, 10 µM was determined as 104%.
Still for that read-out and setting: the result for `Cc1nc(-c2ccccc2)sc1CNC(=O)CCc1c[nH]c2ccccc12` [CBK092373] reads 106%.
On the same count and under the same terms, the result for `CCOC(=O)CNc1nc(OC)cc(OC)n1` [CBK093392] reads 86.7%.
The same measure, in the same setting: the value for `Cc1ccc(NC(=O)Nc2cc(S(N)(=O)=O)ccc2C)cc1` [CBK093428] was 98.5%; that for `O=C1CSC2(C(=O)Nc3ccc(Br)cc32)N1c1cccc([N+](=O)[O-])c1` (stereo not shown) [CBK093451] was 94.3%.
Take `COc1ccc(N2C(=O)CSC23C(=O)Nc2ccc(Br)cc23)cc1` (stereo not shown) [CBK093454]: the viability at 28.5 h, 10 µM was found to be 96.6%.
`CC1SC2(C(=O)Nc3ccccc32)N(c2ccc(F)cc2)C1=O` (stereo not shown) [CBK093463]: the viability at 28.5 h, 10 µM was found to be 96.8%.
`C=CCN1C(=O)C2(Nc3ccccc3C(=O)N2c2ccc(Cl)cc2)c2ccccc21` (stereo not shown) [CBK093474]: the viability at 28.5 h, 10 µM came to 106%.
The same measure, in the same setting: the value for `CCN(CC)C(=O)CN1C(=O)C2(Nc3ccccc3C(=O)N2c2ccc(C)cc2)c2ccccc21` (stereo not shown) [CBK093478] was 86%; that for `COc1nc(-c2cccnc2)cn2ccnc12` [CBK093490] was 82.1%; that for `Cc1ccc(S(N)(=O)=O)cc1CNC(=O)Nc1cccc(F)c1` [CBK093516] was 83.9%.
Consider `Cn1[nH]c(COC(C)(C)C)c(Cc2c(Cl)cccc2Cl)c1=O` [CBK093521], for which the viability at 28.5 h, 10 µM amounted to 99.4%.
As to `COc1ccc(Cn2nc(N)c3ccccc32)cc1` [CBK093530], the viability at 28.5 h, 10 µM is 93.3%.
Take `CCCc1[nH]nc(O)c1C(=O)c1c(Cl)cccc1Cl` [CBK093553]: the viability at 28.5 h, 10 µM stood at 95.7%.
In the case of `CC(C)Nc1cncc(Sc2cccc(C(=O)O)c2)n1` [CBK093582], the viability at 28.5 h, 10 µM stood at 95.1%.
Same read-out and setting: the value for `O=C(O)c1cccc(Sc2nc3cc(Cl)c(Cl)cc3nc2N2CCCC2)c1` [CBK093588] was 118%; that for `O=C(O)c1cccc(Sc2cccc(C(F)(F)F)n2)c1` [CBK093592] was 98%; that for `CNC(=O)c1cnc(SC)nc1NCCc1c[nH]c2ccccc12` [CBK093597] was 104%.
In the case of `CCOC(=O)c1cnc(N2CCOCC2)nc1NCCc1c[nH]c2ccccc12` [CBK093605], the viability at 28.5 h, 10 µM came to 106%.
Same read-out and setting: the result for `c1cncc(-c2cn3ccnc3c(NC3CCCCC3)n2)c1` [CBK093606] reads 84.6%.
Consider `CC(C)Nc1nc(-c2cccnc2)cn2ccnc12` [CBK093608], for which the viability at 28.5 h, 10 µM worked out at 96.6%.
On the same count and under the same terms, the value for `NC1=NNC2=C(c3ccc(F)cc3)NNN12` [CBK093659] was 86%.
As for `NC1=NNC2=C(c3cccc(Cl)c3)NNN12` [CBK093661], the viability at 28.5 h, 10 µM is 87.3%.
The same measure, in the same setting: the value for `COc1cccc(N2N=C3NNC(N)=C3N2)c1` [CBK093665] was 83.7%; that for `Cc1nnc(Sc2nc3ccccc3nc2NC(C)C)s1` [CBK093731] was 90.6%.
For the compound `c1cnc(N2CCCC2)c(Sc2nc[nH]n2)n1` [CBK093737], the viability at 28.5 h, 10 µM is 102%.
Still for that read-out and setting: the result for `c1nc(Sc2nccs2)cc(N2CCCC2)n1` [CBK093748] reads 100%.
With `Clc1cc2nc(Sc3ccccn3)c(N3CCCC3)nc2cc1Cl` [CBK093754], the viability at 28.5 h, 10 µM was determined as 100%.
Still for that read-out and setting: the value for `Nc1ccccc1Sc1ncccc1C(F)(F)F` [CBK093758] was 86.2%; that for `COc1ccc(Sc2cc(C(F)(F)F)ccn2)cc1OC` [CBK093762] was 92.5%.
In the case of `Cc1csc(Sc2nccc(C(F)(F)F)n2)n1` [CBK093770], the viability at 28.5 h, 10 µM was found to be 91.9%.
As for `FC(F)(F)c1ccnc(Sc2nccs2)n1` [CBK093771], the viability at 28.5 h, 10 µM amounted to 91.9%.
On the same count and under the same terms, the result for `FC(F)(F)c1nc2ccccc2nc1Sc1ccncc1` [CBK093773] reads 92.8%; that for `Cn1ccnc1Sc1nc2ccccc2nc1C(F)(F)F` [CBK093778], 106%; that for `COc1ccc(Sc2nc3ccccc3nc2C(F)(F)F)cc1OC` [CBK093779], 85%.
The same measure, in the same setting: the value for `Oc1cccc(Sc2nc3ccccc3nc2C(F)(F)F)c1` [CBK093780] was 109%; that for `Nc1ccccc1Sc1ccc(C(F)(F)F)cn1` [CBK093782] was 91.9%.
On to `COCc1nnc(Sc2cc(NC(C)C)ncn2)s1` [CBK093784], for which the viability at 28.5 h, 10 µM was 89.3%.
`Cc1csc(Sc2nc3ccccc3nc2N2CCCC2)n1` [CBK093788]: the viability at 28.5 h, 10 µM stood at 99.2%.
For `Cn1ccnc1Sc1nc2ccccc2nc1N1CCCC1` [CBK093791], the viability at 28.5 h, 10 µM came to 92.4%.
Regarding `c1ccc2nc(N3CCCC3)c(Sc3nccs3)nc2c1` [CBK093794], the viability at 28.5 h, 10 µM came out at 110%.
Still for that read-out and setting: the value for `Oc1cccc(Sc2cncc(N3CCCC3)n2)c1` [CBK093796] was 106%.
As to `COc1ccc(Sc2nc3ccccc3nc2N2CCCC2)cc1OC` [CBK093797], the viability at 28.5 h, 10 µM amounted to 101%.
Still for that read-out and setting: the value for `Nc1nnc(Sc2nccnc2N2CCCC2)s1` [CBK093804] was 103%; that for `c1csc(Sc2nccnc2N2CCCC2)n1` [CBK093805] was 107%.
With `c1cc(Sc2nccnc2N2CCCC2)ccn1` [CBK093807], the viability at 28.5 h, 10 µM worked out at 92.3%.
The same measure, in the same setting: the result for `FC(F)(F)c1nc2ccccc2nc1Sc1nc[nH]n1` [CBK093808] reads 87.6%; that for `N#Cc1ccc(-c2cnc(NC(=O)C(F)(F)F)c(-c3ccc(C(=O)N4CCOCC4)cc3)n2)cc1` [CBK093819], 94.2%; that for `Cc1c(Nc2ncnc3sc4c(c23)CCCC4)c(=O)n(-c2ccccc2)n1C` [CBK093912], 93.1%.
Same read-out and setting: the value for `CCc1ccc(S(=O)(=O)N2CCN(C(c3ccccc3)c3ccccc3)CC2)cc1` [CBK093948] was 98.6%.
On the same count and under the same terms, the result for `Cc1ccc(-c2csc(NC(=O)c3ccc(S(=O)(=O)N4CCOCC4)cc3)n2)cc1` [CBK094024] reads 93.4%; that for `Cc1ccc(-n2c(C)c([N+](=O)[O-])c3ccc(O)cc32)cc1` [CBK094246], 86.2%; that for `OC(CN1CCNCC1)Cn1c2ccc(Cl)cc2c2cc(Cl)ccc21` (stereo not shown) [CBK094277G], 68.1%.
Take `OC[C@H]1CCCN1c1nc(Br)cn2c(-c3ccccn3)cnc12` [CBK094394]: the viability at 28.5 h, 10 µM is 100%.
On to `COc1ccc(NS(=O)(=O)c2cc(C(=O)O)c(Cl)cc2Cl)cc1` [CBK095077], for which the viability at 28.5 h, 10 µM worked out at 89.7%.
Take `O=C(Oc1ccc(-n2ccnc2)cc1)c1ccc(-c2ccccc2)cc1` [CBK095145]: the viability at 28.5 h, 10 µM is 93.3%.
Still for that read-out and setting: the value for `CCOC(=O)c1cnc2ccc(OC)cc2c1Nc1ccc(OC)cc1` [CBK095337] was 93.7%.
Same read-out and setting: the value for `Clc1ccc(Cl)c(-c2nc3ccccc3o2)n1` [CBK095353] was 91.6%.

The data set is the same for the next values; noted with them: human, hela cells, % viability, bulk resorufin, single well.
Regarding `COc1ccc(CCn2nc(C(=O)O)c3ccccc32)cc1` [CBK093525], the viability at 28.5 h, 10 µM turned out to be 85%.
Same read-out and setting: the result for `CC(=O)N1CCC(C(=O)Nc2cccc(-c3ccc4c(c3)COC3(CCNCC3)O4)c2)CC1` [CBK093674] reads 91.4%.

The values above are taken from article PMC12040169 (PLOS Biology, 2025).
